Results published in patent publication US20230054976A1, “METHODS FOR INHIBITION OF ALPHA-SYNUCLEIN mRNA USING SMALL MOLECULES” (The Scripps Research Institute, priority 2019, published 2023).
pKd: −log10 of the molar value.

Key:
[1] = biological target: RNA-7 (A bulge mutated to U or G bulge); assay: Competitive binding assay (2-AP), RNA-7
Description: EC50 was calculated from Eq. (1).

5′ UTR of SNCA mRNA = assay: In vitro translation assay (rabbit reticulocyte lysate), SNCA-5′-UTR-Luc mRNA; type: biochemical, human
Description: Luciferase assay. The effect of Synucleozid treatment on translation from various IRE containing transcripts was determined using luciferase reporter assay. SH-SY5Y cells stably expressing 5' UTR were treated with Synucleozid for 48 h, washed with PBS and lysed with Passive Lysis Buffer for 15 min at room temperature. Luciferase reporter activity in each lysate was monitored using the dual luciferase reporter assay system kit (Promega. Madison, Wis., USA) according to the manufacturer's instructions. Luminescence from firefly luciferase reaction was measured using a microplate luminometer (Wallac 1420, Perkin Elmer) at 485 nm excitation and 535 nm emission wavelengths. Firefly luciferase reaction was then quenched by adding Stop & Glo reagent, and the internal fluorescence from GFP measured at the same setting was used to normalize luciferase expression. Luciferase reporter activity was expressed as percent change compared to the respective vehicle-treated control cells. In vitro translation assay. The mRNA template for in vitro translational assays was transcribed from the pIRES-Luc-EGFP-puro and pCDH-α-syn-5'-UTR-Luc-EGFP-puro plasmids by using an in vitro transcription system (RiboMax, Promega) with forward primer: [NT] and reverse primer: [NT]. […] Translation proceeded at 30° C. for 90 min, and then luminescence was measured with a Biomek FLx800 plate reader (1.0 s integration time).

SH-SY5Y cells proteome = assay: Proteomics profiling by mass spectrometry; type: cell-based, human; details: 48 h
Description: Treatment with Synucleozid and siRNA for proteomics profiling using Mass Spectrometry. SH-SY5Y cells were cultured in 100 mm dishes to 60% confluency and treated with 1.5 μM of Synucleozid or DMSO, or transfected with 0.1 μM α-synuclein siRNA (ON-TARGETplus Human SNCA siRNA-SMARTpool) or scramble siRNA (ON-TARGETplus Non-targeting siRNA) using Lipofectamine RNAiMAX (Invitrogen) according to the manufacturer's instructions for 48 h. Cells were gently washed twice with ice-cold PBS, detached and lysed in PBS via sonication. […] Same samples were then denatured in 6 M urea in 50 mM NH4HCO3, reduced with 10 mM tris(2-carboxyethyl)phosphine hydrochloride (TCEP) for 30 min, and alkylated with 25 mM iodoacetamide for 30 min, in the dark at room temperature. Samples were diluted to 2 M urea with 50 mM NH4HCO3, and digested with trypsin (Thermo Scientific, 1.5 μL of 0.5 μg/μL) in the presence of 1 mM CaCl2 (100× stock in water). The digestion was performed for 12 h at 37° C. Samples were acidified to a final concentration of 5% acetic acid, desalted over a self-packed C18 spin column, and dried. Samples were then analyzed by LC-MS/MS (see below). The MS data were processed with MaxQuant.
LC-MS/MS analysis. Peptides from samples described above were resuspended in water with 0.1% formic acid and analyzed using EASY-nLC 1200 nano-UHPLC coupled to Q Exactive HF-X Quadrupole-Orbitrap mass spectrometer (Thermo Scientific). The chromatography column consists 30 cm long, 75 μm i.d. microcapillary capped by a 5 μm tip and packed with ReproSil-Pur 120 C18-AQ 2.4 μm beads (Dr. Maisch GmbH). LC solvents had two buffers which were Buffer A (0.1% formic acid in H2O) and Buffer B (0.1% formic acid in 90% MeCN:10% H2O). Peptides from samples described above were eluted into the mass spectrometer at a flow rate of 300 nL/min over a 240 min linear gradient (5-35% Buffer B) at 65 C. Data-dependent mode (top-20, NCE 28, R=7500) was used to acquire data after full MS scan (R=60000, m/z 400-1300). Dynamic exclusion was 10 s. Peptide match was set to prefer. Isotope exclusion was enabled.
MaxQuant analysis. MaxQuant (11) (V1.6.1.0) was used to analyze the mass spectrometer data. Data was searched against the human proteome (Uniprot) and a list of contaminants (included in MaxQuant). The first and main peptide search tolerance were set to 20 ppm and 10 ppm respectively. Fragment mass tolerance was set to 0.02 Da. The false discovery rate (FDR) was 1% for proteins, peptides, and sites identification. The minimum peptide length was set to 6 amino acids (AA). Peptide requantification, label-free quantification (MaxLFQ), “match between runs” were all enabled. The minimal number of peptides for every protein was set to 2. A variable modification was set to be methionine oxidation, and a fixed modification was set to be carbamidomethylation of cysteines in searches.

[2] = Synucleozid 1.5 μM vs vehicle, siRNA 0.1 μM vs scrambled control siRNA

SMILES: N=C(N)c1ccc(Nc2ccc(-c3cc4ccc(C(=N)N)cc4[nH]3)cc2)cc1 [Synucleozid A]
- pKd [1]: ~4.70
- reduction of avidity compared to the native IRE [1]: 10 fold
- inhibition of luciferase expression in vitro, SNCA-5′-UTR-Luc (5′ UTR of SNCA mRNA): inhibited luciferase expression in a concentration-dependent manner
- effect on proteins encoded by mRNAs with IREs (ACO2, NDUFS1, CDC42BPB, FTH1) (SH-SY5Y cells proteome; 1.5 μM): Only FTH1 was affected
- number of proteins downregulated (SH-SY5Y cells proteome; [2]): 143
- number of proteins with increased expression (SH-SY5Y cells proteome; [2]): 140
- proteins affected, percentage of detected (SH-SY5Y cells proteome; [2]): 8%
- proteins downregulated, % of all proteins (SH-SY5Y cells proteome; [2]): 4.3%
- proteins with increased expression, % of all proteins (SH-SY5Y cells proteome; [2]): 4.2%
- number of proteins affected among 3300 detected (SH-SY5Y cells proteome; Synucleozid 1.5 μM vs vehicle, siRNA 0.1 μM vs scrambled control siRNA, adjusted p-value <0.01): 283
